Values quoted from earlier work, collected in US12397060B2, “pHLIP®-mediated intracellular delivery of immuno-stimulatory compounds” (University of Rhode Island Board of Trustees, priority 2019, dated 2025).

System: DCs, macrophages, T cells and endothelial cells sorted from B16 tumors
Conditions: stimulated ex vivo, expression highest in macrophages, followed by DCs

SMILES | IFN-β expression upon stimulation
Nc1ncnc2c1ncn2[C@@H]1O[C@@H]2COP(=O)([S-])O[C@@H]3[C@H](O)[C@@H](COP([O-])(=S)O[C@H]2[C@H]1O)O[C@H]3n1cnc2c(N)ncnc21.[Na+].[Na+] (some centres unmarked) [ML RR-S2 CDA, Dithio-(Rp, Rp)-2′,3′-CDA sodium salt] | All subsets expressed IFN-β
Cc1ccc2c(=O)c3cccc(CC(=O)O)c3oc2c1C [DMXAA, 5,6-Dimethylxanthenone-4-acetic acid] | All subsets expressed IFN-β
